Reference: patent publication US20130005568A1, “SAFENED HERBICIDAL MIXTURES” (E.I. DU PONT DE NEMOURS AND COMPANY, priority 2011, published 2013)

Experiments:
[1] = test system: Creeping bentgrass; assay: Test G: turf grass and weed postemergence plant response rating; type: in vivo, Agrostis stoonoifera L.; settings: Compound 1 alone 125 g ai/ha; Test G plants
From the text: (§1) For all of the following biological tests, plant response ratings were based on a 0-100 scale where zero is growth equivalent to that of untreated plants (no plant response) and 100 represents no additional growth occurring after herbicide treatment.
(§2) Plants of the turf grass species: zoysia (Zoysia japonica Steud.), bermudagrass (Cynodon dactylon (L.) Pers.), tall fescue (Festuca arundinacea Shreib.), creeping bentgrass (Agrostis stoonoifera L.), perennial ryegrass (Lolium perenne L.) and hard fescue (Festuca species) were grown under greenhouse conditions for four months. Plants were clipped as needed to plant heights of 5-10 cm. Weeds typically found in turf: annual bluegrass (Poa annua L.), common chickweed (Stellaria media (L.) Vill.), large crabgrass (Digitaria sanguinales (L.) Scop.), dandelion (Taraxacum officinale Weber in Wiggers), goosegrass (Eleusine indica (L.) Gaertn.), henbit (Lamium amplexicaule L.), venice mallow (Hibiscus trionium L.) and purple nutsedge (Cyperus rotundus L.) were also grown under greenhouse conditions so that plants were 5-20 cm tall when they were treated. Herbicide mixtures were formulated, dissolved/dispersed in water containing 0.25% non-ionic surfactant, and sprayed postemergence to these turf grasses and weeds. Treated plants were grown under greenhouse conditions for three weeks before visual evaluations of plant responses were recorded.

[2] = test system: Pioneer 39K40 hybrid maize; assay: Test B: visual plant response rating, postemergence herbicides with Compound 1 rate series; type: in vivo, Zea mays L. spp. indentata Sturt.; settings: Compound 1 alone 125 g ai/ha; Test B
Experimental: as §1
Herbicide mixtures were dissolved/dispersed in a non-phytotoxic liquid carrier and were sprayed postemergence to Pioneer 39K40 hybrid maize (Zea mays L. spp. indentata Sturt.) in the third collar growth stage (extended leaf height was 50-60 cm). Treated plants were grown under greenhouse conditions for two weeks before visual evaluations of plant responses were recorded.

[3] = test system: velvetleaf; assay: Test I: postemergence plant response rating; type: in vivo, Abutilon theophrasti Medik.; settings: Compound 1 alone 125 g ai/ha; Test I plants
From the text: as §1
Herbicide mixtures were formulated, dissolved/dispersed in water containing 0.25% non-ionic surfactant, and sprayed postemergence to the crop: soybean (Glycine max (L.) Merr.) at the 2-leaf growth stage and to weeds: lambsquarters (Chenopodium album L.) and velvetleaf (Abutilon theophrasti Medik.). Weed species were 5-10 cm tall when treated. Treated plants were grown under greenhouse conditions for two weeks before visual evaluations of plant responses were recorded.

[4] = test system: winter barley; assay: Test E: postemergence plant response rating; type: in vivo, Hordeum vulgare L.; settings: Compound 1 alone 125 g ai/ha; Test E plants
From the text: as §1
(§3) Herbicide mixtures were formulated, dissolved/dispersed in water containing 0.25% non-ionic surfactant, sprayed postemergence to the crops: winter wheat (Triticum aestivum L.), spring wheat (Triticum aestivum L.), winter barley (Hordeum vulgare L.) and spring barley (Hordeum vulgare L.), and the weeds: blackgrass (Alopecurus myosuroides Huds.), lambsquarters (Chenopodium album L.) and pigweed (Amaranthus retroflexus L.). Treated plants were grown under greenhouse conditions for two weeks before visual evaluations of plant responses were recorded.

[5] = test system: spring barley; assay: Test E: postemergence plant response rating; type: in vivo, Hordeum vulgare L.; settings: Compound 1 alone 125 g ai/ha; Test E plants
From the text: as §1, §3

[6] = test system: Surinam grass; assay: Test K: pasture grass postemergence plant response rating, field conditions; type: in vivo, Brachiaria decumbens Stapf; settings: Compound 1 alone 140 g ai/ha; Test K plants
From the text: as §1
(§4) Herbicide mixtures were formulated, dissolved/dispersed in water containing 0.25% non-ionic surfactant, and sprayed postemergence to the pasture grasses: Surinam grass (Brachiaria decumbens Stapf), palisade grass (Brachiaria brizantha (Hochst. ex A. Rich) Stapf) and Alexandergrass (Brachiaria plantaginea (Link) A. S. Hitchc.) approximately 10-30 cm tall (extended leaf height). This test was conducted under field conditions. Visual evaluations of plant responses were recorded four weeks after the plants were treated.

[7] = test system: sorghum hybrid WL09-6001; parameters: species or system Sorghum bicolor (L.) Moench; settings: in vivo
From the text: as §1
(§5) Cultivated sorghum varieties are generally very sensitive to acetohydroxy acid synthase-inhibiting herbicides such as rimsulfuron. To impart tolerance in sorghum hybrids WL09-6001 and WL09-6002 used in this test, plant breeders introduced a gene for acetohydroxy acid synthase (also known as acetolactate synthase) resistant to inhibition by certain acetohydroxy acid synthase-inhibiting herbicides, by breeding starting from a wild Sorghum genotype containing the resistance gene (see U.S. Patent Publication US 2008/0216187 A1).
(§6) Herbicide mixtures were formulated, dissolved/dispersed in water containing 1% crop oil concentrate, and sprayed postemergence to sorghum (Sorghum bicolor (L.) Moench) in the third collar growth stage (extended leaf height is 10-20 cm). Treated plants were grown under greenhouse conditions for two weeks before visual evaluations of plant responses were recorded.

[8] = test system: sorghum hybrid WL09-6002; parameters: species or system Sorghum bicolor (L.) Moench; settings: in vivo
From the text: as §1, §5, §6

[9] = test system: Annual bluegrass; assay: Test G: turf grass and weed postemergence plant response rating; type: in vivo, Poa annua L.; settings: Compound 1 alone 125 g ai/ha; Test G plants
From the text: as §1, §2

[10] = test system: Tall fescue; assay: as above; type: in vivo, Festuca arundinacea Shreib.; settings: Compound 1 alone 125 g ai/ha; Test G plants
From the text: as §1, §2

[11] = test system: Venice mallow; assay: as above; type: in vivo, Hibiscus trionium L.; settings: Compound 1 alone 125 g ai/ha; Test G plants
From the text: as §1, §2

[12] = test system: winter wheat; assay: Test F: preemergence plant response rating; type: in vivo, Triticum aestivum L.; settings: Compound 1 alone 125 g ai/ha; Test F plants
From the text: as §1
Herbicide mixtures were formulated, dissolved/dispersed in water, and sprayed preemergence to the crops: winter wheat (Triticum aestivum L.) and winter barley (Hordeum vulgare L.), and the weed: blackgrass (Alopecurus myosuroides Huds). Treated plants were grown under greenhouse conditions for three weeks before visual evaluations of plant responses were recorded.

[13] = test system: pigweed; assay: Test E: postemergence plant response rating; type: in vivo, Amaranthus retroflexus L.; settings: Compound 1 alone 125 g ai/ha; Test E plants
From the text: as §1, §3

[14] = test system: Bermudagrass; assay: Test G: turf grass and weed postemergence plant response rating; type: in vivo, Cynodon dactylon (L.) Pers.; settings: Compound 1 alone 125 g ai/ha; Test G plants
From the text: as §1
Plants of the turf grass species: zoysia (Zoysia japonica Steud.), bermudagrass (Cynodon dactylon (L.) Pers.), tall fescue (Festuca arundinacea Shreib.), creeping bentgrass (Agrostis stoonoifera L.), perennial ryegrass (Lolium perenne L.) and hard fescue (Festuca species) were grown under greenhouse conditions for four months. Plants were clipped as needed to plant heights of 5-10 cm. […] Herbicide mixtures were formulated, dissolved/dispersed in water containing 0.25% non-ionic surfactant, and sprayed postemergence to these turf grasses and weeds. Treated plants were grown under greenhouse conditions for three weeks before visual evaluations of plant responses were recorded.

[15] = test system: palisade grass; assay: Test K: pasture grass postemergence plant response rating, field conditions; type: in vivo, Brachiaria brizantha (Hochst. ex A. Rich) Stapf; settings: Compound 1 alone 140 g ai/ha; Test K plants
From the text: as §1, §4

[16] = test system: Perennial ryegrass; assay: Test G: turf grass and weed postemergence plant response rating; type: in vivo, Lolium perenne L.; settings: Compound 1 alone 125 g ai/ha; Test G plants
From the text: as §1, §2

Measured: injury, Compound 1 alone

Cc1ccccc1S(=O)(=O)NC(N)=O [Compound 1, N-(aminocarbonyl)-2-methylbenzenesulfonamide]
no injury: all assays above
